# Measured values from article PMC6920777, “Pharmacokinetic Alteration of Paclitaxel by Ferulic Acid Derivative” (Pharmaceutics, 2019).
# Read-outs that look alike come from different tables or passages of the source.
# Key:
# MCF-7/ADR cells [1] = experiment: Cytotoxicity of DNM with FA derivatives, SRB assay; format: cell-based, human; settings: for IC50 of DNM as fraction of negative control (DNM alone) value: derivative 100 µM
# Procedure: The effect of eight FA derivatives on cytotoxicity was studied in P-gp overexpressed human breast cancer cells (MCF-7/ADR) using the SRB assay. The details of the cell culture condition and the assay method were presented in our previous reports. […] The assay was performed in triplicate.
# MCF-7/ADR cells [2] = experiment: [3H]-daunomycin accumulation study; format: cell-based, human; settings: 100 µM, 2 h incubation, mean ± SD, triplicate
# Procedure: (§1) The methods for [^3H]-DNM accumulation and efflux studies were reported previously. […] The experiments were performed in triplicate.
# (§2) [^3H]-DNM uptake and efflux were determined after the incubation with each derivative (100 µM) for 2 h and 1 h, respectively. […] Control represents accumulation or efflux of tritium labeled DNM alone.
# MCF-7/ADR cells [3] = experiment: [3H]-daunomycin efflux study; format: cell-based, human
# Procedure: as §1, §2
# human P-gp membranes = biological target: T1, human P-gp membranes (Homo sapiens, UniProt P08183); experiment: Human P-glycoprotein ATPase activity assay; format: biochemical; settings: for P-gp ATPase activity, ratio of blank (control): human P-gp membranes
# T1 construct: purchased
# Procedure: The ATPase activities were expressed as the rate of phosphate release per milligram of membrane protein and converted to the relative ratio versus the control. This assay was performed in duplicate.
# [4] = Pharmacokinetic study of oral PTX alone or co-administered with compound 5c; format: in vivo, male Sprague-Dawley rats
# Procedure: The pharmacokinetic (PK) study was performed using male Sprague-Dawley rats (6 weeks old and 200 g–235 g) commercially available from Orient Bio (Seongnam, Korea). All animal procedures were approved by the Institutional Animal Care and Use Committee of Ewha Womans University (No. 2012-01-019, approved on 3 April 2012), Republic of Korea.
# Rats were divided into the following 4 groups: Oral administration (PO) of PTX (25 mg/kg) alone and co-administration of PTX (25 mg/kg) with compound 5c at three different doses (0.5, 2 and 5 mg/kg). Each group had 5 rats except for a group of 2 mg/kg dose (n = 4). The blood samples (0.2 mL) were collected from the common carotid artery at 0, 0.25, 0.5, 1, 2, 3, 4, 6, 8, 10 and 24 h.
# PTX concentrations in rat plasma were analyzed by Agilent HP1100 series system using a Capcell-pak C18 MG120 column (3 mm × 250 mm, 5 µm, Shiseido, Tokyo, Japan). The samples were eluted with mobile phase composed of acetonitrile and 0.1% phosphoric acid (1/1, v/v) at a flow rate of 0.5 mL/min for 30 min and detected at a wavelength of 227 nm. The HPLC-UV method was validated by FDA guidelines as follows: Specificity (PTX: 14.8 min; internal standard: 26.7 min), linearity over the concentration range between 0.01 and 10 µg/mL, lower limit of quantification (0.01 µg/mL) and intra-/inter-day precision and accuracy (2.4–9.1% and 92.1–102.7%, respectively). All other details for sample preparation and quantification of PTX concentrations in rat plasma were reported previously.
# The following PK parameters of PTX after oral single dosing to rats were estimated by non-compartmental analysis using WinNonlin® Professional version 5.2 software (Pharsight Corporation, Mountain View, CA, USA): The area under the plasma concentration-time curve from 0 h to infinity (AUCinf), elimination half-life (t1/2), apparent volume of distribution after oral single dosing (Vz/F), oral clearance (Cl/F), maximum plasma concentration (Cmax) and the time required to reach Cmax (Tmax). The relative bioavailability (RB, %) of PTX was calculated with the following formula: RB ( % )=AUCinf po co−administraion/AUCinf po control×100
# AUCinf po control is the AUCinf obtained from oral single administration of PTX alone, and AUCinf po co-administration is the AUCinf obtained from oral single co-administration of PTX and compound 5c.
# MCF-7/ADR cells [5] = experiment: Toxic effect of each derivative and VER alone (cell survival); format: cell-based; settings: Homo sapiens, NCI/ADR-RES, 2 h incubation, read-out: cell survival ratio; for viability at 5 µM: mean (SD); for viability at 10 µM / viability at 25 µM / viability at 50 µM / viability at 100 µM: mean
# Procedure: The effect of eight FA derivatives on cytotoxicity was studied in P-gp overexpressed human breast cancer cells (MCF-7/ADR) using the SRB assay. The details of the cell culture condition and the assay method were presented in our previous reports. […] The assay was performed in triplicate. […]
# Data are presented as mean ± SD.
# The numerical data were represented the cell survival ratio.
# [6] = parameters: method as in PMID 24373826; settings: rats; cited from earlier work
# [7] = parameters: method as in PMID 24373826; settings: humans; cited from earlier work
# [8] = 100 µM, 1 h incubation, mean ± SD, triplicate
# T1 sequence (P08183 whole entry): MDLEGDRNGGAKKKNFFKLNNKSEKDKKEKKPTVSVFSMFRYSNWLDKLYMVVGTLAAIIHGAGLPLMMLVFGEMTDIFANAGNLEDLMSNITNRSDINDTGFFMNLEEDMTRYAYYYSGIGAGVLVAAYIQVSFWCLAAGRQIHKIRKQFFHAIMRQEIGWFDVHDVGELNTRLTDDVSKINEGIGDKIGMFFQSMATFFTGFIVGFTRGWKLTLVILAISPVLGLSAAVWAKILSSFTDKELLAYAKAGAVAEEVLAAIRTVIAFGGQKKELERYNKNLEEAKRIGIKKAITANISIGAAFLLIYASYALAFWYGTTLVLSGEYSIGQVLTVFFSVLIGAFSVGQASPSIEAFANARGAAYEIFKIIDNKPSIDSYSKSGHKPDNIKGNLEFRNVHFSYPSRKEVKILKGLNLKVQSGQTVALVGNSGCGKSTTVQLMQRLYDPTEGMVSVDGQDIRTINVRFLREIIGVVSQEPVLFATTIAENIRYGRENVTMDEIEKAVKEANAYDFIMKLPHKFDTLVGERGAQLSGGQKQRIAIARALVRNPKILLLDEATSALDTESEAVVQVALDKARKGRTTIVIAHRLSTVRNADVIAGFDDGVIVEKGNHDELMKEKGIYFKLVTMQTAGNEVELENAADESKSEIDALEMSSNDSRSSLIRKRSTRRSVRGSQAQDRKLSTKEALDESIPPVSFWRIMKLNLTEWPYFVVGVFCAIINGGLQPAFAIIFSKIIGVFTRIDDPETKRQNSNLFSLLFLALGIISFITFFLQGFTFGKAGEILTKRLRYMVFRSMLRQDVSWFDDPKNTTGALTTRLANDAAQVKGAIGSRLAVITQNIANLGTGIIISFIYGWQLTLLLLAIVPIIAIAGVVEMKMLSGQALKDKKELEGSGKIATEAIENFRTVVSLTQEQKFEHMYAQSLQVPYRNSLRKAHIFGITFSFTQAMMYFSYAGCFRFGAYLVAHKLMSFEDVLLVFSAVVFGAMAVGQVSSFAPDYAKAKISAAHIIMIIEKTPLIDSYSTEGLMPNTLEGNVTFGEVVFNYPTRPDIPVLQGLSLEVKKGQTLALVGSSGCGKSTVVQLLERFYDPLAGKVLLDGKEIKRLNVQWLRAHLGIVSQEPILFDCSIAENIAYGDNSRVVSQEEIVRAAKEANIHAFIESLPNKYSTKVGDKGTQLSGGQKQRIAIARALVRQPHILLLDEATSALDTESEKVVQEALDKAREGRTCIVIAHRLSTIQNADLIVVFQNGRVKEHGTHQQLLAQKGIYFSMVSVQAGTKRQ
Structure (SMILES),IC50 of DNM as fraction of negative control (DNM alone) value (MCF-7/ADR cells [1]),"P-gp ATPase activity, ratio of blank (control) (human P-gp membranes; 20 μM)","P-gp ATPase activity, ratio of blank (control) (human P-gp membranes; 50 μM)","P-gp ATPase activity, ratio of blank (control) (human P-gp membranes; 100 μM)",viability at 5 µM (MCF-7/ADR cells [5]),viability at 10 µM (MCF-7/ADR cells [5]),viability at 25 µM (MCF-7/ADR cells [5]),viability at 50 µM (MCF-7/ADR cells [5]),viability at 100 µM (MCF-7/ADR cells [5]),melting point,other results
"COc1cc(/C=C/C(=O)N2CCCCC2)ccc1OCc1ccccc1 [Compound 5c, (E)-3-(4-benzyloxy-3-methoxyphenyl)-1-(piperidin-1-yl)prop-2-en-1-one]",about 1/5,1.54,2.48,4.02,101%,98.5%,96.1%,96.9%,87.6%,,"accumulation of [3H]-DNM (MCF-7/ADR cells [2]): 438.4 ± 4.9%; efflux of [3H]-DNM (MCF-7/ADR cells [3]; [8]): 43.1 ± 4.6%; Concentration dependence of P-gp ATPase activity (human P-gp membranes; 20, 50 and 100 μM): stably increased ATPase activity in a concentration-dependent manner; Cl/F of PTX ([4]; PTX 25 mg/kg PO co-administered with compound 5c 2 mg/kg, rats): 4.10 ± 1.53 L/h; Cl/F of PTX ([4]; PTX 25 mg/kg PO co-administered with compound 5c 5 mg/kg, rats): 4.53 ± 1.04 L/h; Effect on PK parameters of PTX ([4]; compound 5c 0.5 mg/kg co-administered, compared to PO control (PTX alone)): did not alter any PK parameters of PTX; Improvement of the BA of PTX ([4]; compound 5c 5 mg/kg co-administered with PTX in rats): approximately twofold"
"COc1cc(/C=C/C(=O)N(C)C)ccc1OCC(C)C [Compound 5e, (E)-3-(4-isobutoxy-3-methoxyphenyl)-N,N-dimethylacrylamide]",,,,,100%,99.4%,95.8%,95%,94.8%,109 to 111 °C,accumulation of [3H]-DNM (MCF-7/ADR cells [2]): 382.1 ± 20.4%; efflux of [3H]-DNM (MCF-7/ADR cells [3]; [8]): 39.9 ± 3.8%
"COc1cc(/C=C/C(=O)N(C)C)ccc1OCc1ccccc1 [Compound 5g, (E)-3-(4-benzyloxy-3-methoxyphenyl)-N,N-dimethylacrylamide]",about 1/5,1.26,1.77,5.19,104%,102%,100%,99.3%,102%,135 to 136 °C,
"COc1cccc2c1C(=O)c1c(O)c3c(c(O)c1C2=O)C[C@@](O)(C(C)=O)C[C@@H]3O[C@H]1C[C@H](N)[C@H](O)[C@H](C)O1 [DNM, daunomycin, reference compound]",,,,,,,,,,,"IC50 (MCF-7/ADR cells [1]; Homo sapiens, NCI/ADR-RES, negative control: DNM alone, incubation): 31.7 µM; efflux of [3H]-DNM (MCF-7/ADR cells [3]; control: tritium labeled DNM alone, 1 h): 63.0 ± 3.3%"
"COc1cc(/C=C/C(=O)N2CCCCC2)ccc1OCC(C)C [Compound 5b, (E)-3-(4-isobutoxy-3-methoxyphenyl)-1-(piperidin-1-yl)prop-2-en-1-one]",,,,,101%,97.8%,96.1%,96.1%,92%,96 to 97 °C,
"COc1cc(/C=C/C(=O)O)ccc1O [FA, Ferulic acid]",,,,,,,,,,,Time within which FA is absorbed in the intestine [6]: 5 to 15 min; Time within which FA is absorbed in the intestine [7]: ≤ 30 min
"CCCOc1ccc(/C=C/C(=O)N(C)C)cc1OC [Compound 5d, (E)-3-(3-methoxy-4-propoxyphenyl)-N,N-dimethylacrylamide]",,,,,102%,97.8%,97.1%,97.1%,96.2%,108 to 109 °C,
"CC(=O)O[C@H]1C(=O)[C@@]2(C)[C@H]([C@H](OC(=O)c3ccccc3)[C@]3(O)C[C@H](OC(=O)[C@H](O)[C@@H](NC(=O)c4ccccc4)c4ccccc4)C(C)=C1C3(C)C)[C@]1(OC(C)=O)CO[C@@H]1C[C@@H]2O [PTX, Paclitaxel]",,,,,,,,,,,"Cl/F of PTX ([4]; PTX 25 mg/kg PO alone, rats): 8.22 ± 1.84 L/h; Cmax of PTX ([4]; PTX 25 mg/kg PO alone, rats): 187 ± 41 ng/mL; AUC(0-inf) ([4]; male, Sprague-Dawley, rat, plasma, PTX 25 mg/kg PO alone, rats, read-out: AUCinf of PTX): 773 ± 169 ng·h/mL; Vd/F ([4]; male, Sprague-Dawley, rat, plasma, PTX 25 mg/kg PO alone, rats, read-out: Vz/F of PTX): 35.1 ± 16.8 L; half-life ([4]; male, Sprague-Dawley, rat, plasma, PTX 25 mg/kg PO alone, rats, read-out: t1/2 of PTX (converted)): 2.8 ± 0.86 h"
"CCCOc1ccc(/C=C/C(=O)N(C)Cc2ccccc2)cc1OC [Compound 5f, (E)-N-benzyl-3-(3-methoxy-4-propoxyphenyl)-N-methylacrylamide]",about 1/5,2.85,3.12,3.35,98.9%,99.4%,100%,96.9%,92.8%,,
"CCCOc1ccc(/C=C/C(=O)N2CCCCC2)cc1OC [Compound 5a, (E)-3-(3-methoxy-4-propoxyphenyl)-1-(piperidin-1-yl)prop-2-en-1-one]",,,,,96.5%,94.1%,96%,93.8%,87.8%,91 to 92 °C,
"CCCOc1ccc(/C=C/C(=O)N2CCC(O)(c3ccccc3)CC2)cc1OC [Compound 5h, (E)-1-(4-hydroxy-4-phenylpiperidin-1-yl)-3-(3-methoxy-4-propoxyphenyl) prop-2-en-1-one]",about 1/5,3.99,2.69,2.79,103%,99.2%,94.6%,89.4%,89.6%,163 to 164 °C,accumulation of [3H]-DNM (MCF-7/ADR cells [2]): 426.1 ± 26.2%; efflux of [3H]-DNM (MCF-7/ADR cells [3]; [8]): 43.3 ± 0.9%
